In ChEMBL document CHEMBL1140518, “Unique spirocyclopiperazinium salt III: further investigation of monospirocyclopiperazinium (MSPZ) salts as potential analgesics” (Bioorg Med Chem Lett, 2007):

Each compound was assayed on Mus musculus (assay: Analgesic activity in mouse assessed as inhibition of acetic acid-induced writhing responses at 31 umol/kg, ip between 5 to 10 mins).
Type: functional
Design: scale not given: the % may be the effect or the level left
In the case of `C[N+]1(C)CCN(c2cccc([N+](=O)[O-])c2)CC1.[I-]`, the Activity is reported as -16%. `CC1C[N+]2(CCN(CCc3ccc([N+](=O)[O-])cc3)CC2)CC(C)O1.[Cl-]` (stereo not given) gave an Activity of -24%. `COc1ccc(CCN2CC[N+]3(CC2)CC(C)OC(C)C3)cc1.[Cl-]` (stereo not given) showed an Activity of -47%. Compound `CC1C[N+]2(CCN(Cc3ccccc3)CC2)CC(C)O1.[Cl-]` (stereo not given) has an Activity of 21%. Work on `CC1C[N+]2(CCN(CCCc3ccccc3)CC2)CC(C)O1.[Cl-]` (stereo not given) yielded an Activity of -19%. Compound `[Br-].c1ccc(N2CC[N+]3(CCCC3)CC2)cc1` has an Activity of 20%. `CC1C[N+]2(CCN(C/C=C/c3ccccc3)CC2)CC(C)O1.[Cl-]` (stereo not given) was tested, and the Activity was -43%. `COc1ccc(N2CC[N+]3(CCCC3)CC2)cc1.[Br-]` gave an Activity of 56%. Work on `C=CCN1CC[N+]2(CC1)CC(C)OC(C)C2.[Cl-]` (stereo not given) yielded an Activity of 49%. Compound `[Cl-].c1ccc(CCN2CC[N+]3(CCCCC3)CC2)cc1` has an Activity of 5%. Compound `[Cl-].c1ccc(CCN2CC[N+]3(CCCCCC3)CC2)cc1` has an Activity of 4%. Work on `CC1C[N+]2(CCN(CCc3ccccc3)CC2)CC(C)O1.[Cl-]` (stereo not given) yielded an Activity of 65%. `C[N+]1(C)CCN(CCc2ccccc2)CC1.[Cl-]` showed an Activity of 18%. `O=[N+]([O-])c1cccc(N2CC[N+]3(CCCC3)CC2)c1.[Br-]` was tested, and the Activity was 61%. Work on `O=[N+]([O-])c1ccc(N2CC[N+]3(CCCC3)CC2)cc1.[Br-]` yielded an Activity of 16%. For `C[N+]1(C)CCN(c2cccc([N+](=O)[O-])c2)CC1.[Br-]`, the Activity was 22%. `[Cl-].c1ccc(CCN2CC[N+]3(CCCC3)CC2)cc1` showed an Activity of -36%. In the case of `CC1C[N+]2(CCN(CCc3ccccn3)CC2)CC(C)O1.[Cl-]` (stereo not given), the Activity is reported as -2%.

Each compound was assayed on Mus musculus (assay: […] in ip dosed nociception mouse model).
Type: functional
Compound `CC1C[N+]2(CCN(CCc3ccccc3)CC2)CC(C)O1.[Cl-]` (stereo not given) has an LD50 of 1550 µmol/kg.

These compounds were tested against Neuronal acetylcholine receptor; alpha4/beta2 (Homo sapiens, UniProt P17787+P43681) (assay: Inhibition of alpha-4-beta-2 nAChR).
Neuronal acetylcholine receptor; alpha4/beta2, sequence (P17787 whole entry): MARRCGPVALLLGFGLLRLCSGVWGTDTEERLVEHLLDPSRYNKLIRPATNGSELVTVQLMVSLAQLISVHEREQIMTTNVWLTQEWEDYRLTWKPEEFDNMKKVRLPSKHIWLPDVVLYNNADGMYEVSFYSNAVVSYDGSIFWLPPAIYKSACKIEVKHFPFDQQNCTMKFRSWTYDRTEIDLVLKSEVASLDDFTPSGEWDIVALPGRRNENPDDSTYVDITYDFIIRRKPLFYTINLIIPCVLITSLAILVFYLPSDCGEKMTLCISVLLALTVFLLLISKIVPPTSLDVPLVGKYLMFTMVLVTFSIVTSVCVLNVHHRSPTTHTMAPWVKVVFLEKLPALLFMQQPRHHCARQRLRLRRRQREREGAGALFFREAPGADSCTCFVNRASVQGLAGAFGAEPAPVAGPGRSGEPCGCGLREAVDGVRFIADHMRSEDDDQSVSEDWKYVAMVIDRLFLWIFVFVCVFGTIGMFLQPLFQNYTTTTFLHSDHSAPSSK
Neuronal acetylcholine receptor; alpha4/beta2, sequence (P43681 whole entry): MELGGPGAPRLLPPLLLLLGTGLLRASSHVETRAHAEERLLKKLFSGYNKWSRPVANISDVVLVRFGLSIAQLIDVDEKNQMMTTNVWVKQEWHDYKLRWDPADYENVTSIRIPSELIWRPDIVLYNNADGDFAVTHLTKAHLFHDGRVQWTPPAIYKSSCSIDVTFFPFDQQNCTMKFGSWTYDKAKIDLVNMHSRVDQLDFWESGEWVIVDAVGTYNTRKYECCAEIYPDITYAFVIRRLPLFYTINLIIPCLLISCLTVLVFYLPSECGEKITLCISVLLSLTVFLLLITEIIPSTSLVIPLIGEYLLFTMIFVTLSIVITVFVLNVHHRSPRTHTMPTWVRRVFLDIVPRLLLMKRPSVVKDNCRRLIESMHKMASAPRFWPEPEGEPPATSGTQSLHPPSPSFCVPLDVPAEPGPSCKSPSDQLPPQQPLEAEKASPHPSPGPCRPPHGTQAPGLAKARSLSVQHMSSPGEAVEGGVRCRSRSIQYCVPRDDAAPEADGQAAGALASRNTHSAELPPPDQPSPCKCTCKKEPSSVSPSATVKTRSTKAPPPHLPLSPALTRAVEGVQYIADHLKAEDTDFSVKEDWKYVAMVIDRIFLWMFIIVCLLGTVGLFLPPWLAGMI
Type: protein-complex assay
For `CC1C[N+]2(CCN(CCc3ccccc3)CC2)CC(C)O1.[Cl-]` (stereo not given), the IC50 was greater than 10 µM.
